# Experimental data as given in paper PMC6009590 (The Journal of Infectious Diseases, 2018).
# [ ]: non-standard residue; d: D form. The star is where a group is joined. X1 = CC(C)CCC[C@@H](C)[C@H]1CC[C@H]2[C@@H]3CC=C4C[C@@H](OC(=O)C*)CC[C@]4(C)[C@H]3CC[C@]12C; PEG4 = NCCOCCOCCOCCOCCC(=O)O
# Tests used:
# [1] = target: T1, proteinase K (Parengyodontium album, UniProt P06873); conditions: isolated enzyme proteinase k, pH 7.5
# [2] = in vivo
# [3] = target: T1, proteinase K; experiment: in vitro; conditions: isolated enzyme proteinase k, pH 7.5
# T1 sequence (P06873 106-384): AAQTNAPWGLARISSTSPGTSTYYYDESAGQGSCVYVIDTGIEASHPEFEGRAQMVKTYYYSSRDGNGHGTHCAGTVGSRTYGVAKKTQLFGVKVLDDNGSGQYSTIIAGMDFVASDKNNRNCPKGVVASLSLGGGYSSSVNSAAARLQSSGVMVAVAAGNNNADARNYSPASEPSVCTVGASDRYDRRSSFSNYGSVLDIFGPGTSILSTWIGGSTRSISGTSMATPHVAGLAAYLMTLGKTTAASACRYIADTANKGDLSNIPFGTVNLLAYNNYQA
Substance,half-life of the intact peptide fraction [1],"biodistribution (lung, blood, CNS) [2]",half-life [3]
Ac-VALDPIDISIVLNKIKSDLEESKEWIRRSNKILDSI-GSGSG-dPEG4-C-(PEG4-Chol)2-NH2 [VIKI-dPEG4-bisChol],3 min,–,–
Ac-VALDPIDISIVLNKIKSDLEESKEWIRRSNKILDSI-GSGSG-dPEG4-C-(PEG4-Toco)2-NH2 [VIKI-dPEG4-bisToco],5 min,–,–
Ac-VALDPIDISIVLNKIKSDLEESKEWIRRSNKILDSIGSGSG[PEG4]C(X1)-NH2 [VIKI-dPEG4-Chol],–,reached high levels in the lung,10 min
